# Source: the supplement of paper PMC10307832
# What was measured:
# Assay in all cases: relative viability (nuclei count vs DMSO), 5 days (fraction); higher = more cells survive
# [1] = compound: COC1=CC(c2cc3ccccc3[nH]2)=N/C1=C\c1[nH]c(C)cc1C [Obatoclax] + Cc1cc(Nc2cc(N3CCN(C)CC3)nc(Sc3ccc(NC(=O)C4CC4)cc3)n2)n[nH]1 [Tozasertib] (partner 0.1 µM)
# Method in brief: (§1)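 Relative viability divides the nuclei count in treated wells by that in vehicle wells. Lung cancer cell lines were seeded in 1536-well plates, dosed by pin tool the next day, and fixed and stained after 5 days in one step with final 0.05% Triton X-100, 1% formaldehyde and 1 ug/ml Hoechst. Dosing was a single drug or a fixed anchor-drug dose plus five library-drug doses (not always all listed) in √10 steps, and values are medians of duplicate plates imaged at 4×.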
# [2] = compound: COC1=CC(c2cc3ccccc3[nH]2)=N/C1=C\c1[nH]c(C)cc1C [Obatoclax] + CC(=O)Nc1cccc(-n2c(=O)n(C3CC3)c(=O)c3c(Nc4ccc(I)cc4F)n(C)c(=O)c(C)c32)c1 [Trametinib] (partner 0.02 µM)
# Method in brief: as §1
# [3] = compound: COC1=CC(c2cc3ccccc3[nH]2)=N/C1=C\c1[nH]c(C)cc1C [Obatoclax] + Nc1nc2[nH]cc(CCc3ccc(C(=O)N[C@@H](CCC(=O)O)C(=O)O)cc3)c2c(=O)[nH]1 [Pemetrexed] (partner 0.2 µM)
# Method in brief: as §1
# [4] = compound: CC(C)C[C@H](NC(=O)[C@H](Cc1ccccc1)NC(=O)c1cnccn1)B(O)O [Bortezomib] + O=C(c1cc(Cc2n[nH]c(=O)c3ccccc23)ccc1F)N1CCN(C(=O)C2CC2)CC1 [Olaparib] (partner 8 µM)
# Method in brief: as §1
cell line,measurement,setting,value
NCI-H650,relative viability,[1]; first compound 0.01 µM,0.732
same,relative viability,[1]; first compound 0.03162 µM,0.779
same,relative viability,[1]; first compound 0.3162 µM,0.631
same,relative viability,[1]; first compound 1 µM,0.309
same,relative viability,[2]; first compound 0.01 µM,0.888
same,relative viability,[2]; first compound 0.03162 µM,1.02
same,relative viability,[2]; first compound 0.3162 µM,0.373
same,relative viability,[2]; first compound 1 µM,0.625
same,relative viability,[3]; first compound 0.01 µM,1.01
same,relative viability,[3]; first compound 0.03162 µM,0.86
same,relative viability,[3]; first compound 0.3162 µM,0.944
same,relative viability,[3]; first compound 1 µM,0.443
same,relative viability,[4]; first compound 0.0002 µM,0.372
same,relative viability,[4]; first compound 0.000632 µM,0.435
same,relative viability,[4]; first compound 0.002 µM,0.398
same,relative viability,[4]; first compound 0.006325 µM,0.165
same,relative viability,[4]; first compound 0.02 µM,0.102
